Two molecules from US20070202206A1, “Morinda Citrifolia Leaf Juice And Leaf Extract Based Formulations” (priority 2005, published 2007) can be followed below.

Each structure is given as a SMILES string.

In test [1] the test system is Propionibacterium acnes (ATCC 6919). The experiment in a line: Microbial in vitro assay, Propionibacterium acnes. It is filed as cell-based. The following applies: Microbial In Vitro Assays, Anaerobes.
Test [2] relates to human epidermoid carcinoma cell line-A431. The test is described as follows: cells. It is filed as cell-based. The following applies: for Percent Grown: A431, 72-hour exposure. As to the method: In this example, assays were performed to detect changes in cell proliferation based on the ability of viable cells to cause alamarBlue to change from non-fluorescent blue to a reduced, fluorescent red form. With the results obtained from the alamarBlue reaction, cell proliferation can be quantified and metabolic activity of viable cells can be examined. Test compounds including Morinda citrifolia leaf extract, leaf juice, and roast leaf were tested for their effects on […]
Morinda citrifolia leaf extract, leaf juice, and roast leaf were provided by Tahitian Noni International, Inc. for in vitro anti-tumor studies. The Morinda citrifolia compounds were dissolved in sterile distilled water and then diluted with sterile distilled water to obtain initial working solutions of 10000, 1000, 100, 10, and 1 μg/ml for the leaf extract and roast leaf, as well as 100, 10, 1, 0.1 and 0.01% for the leaf juice.
The tumor cell line, A431 (human epidermoid carcinoma), obtained from American Type Culture Collection (ATCC CRL-1555), was incubated in an air atmosphere of 5% CO2 at 37° C. The culture medium was used with Dulbecco's Modified Eagle's medium, 90%; Fetal Bovine Serum, 10% and supplemented with 1% Antibiotic-Antimycotic.
The anti-proliferation for the test substances was evaluated. Aliquots of 100 μl of cell suspension (about 3×10^3/well) were placed in 96-well microtiter plates in an atmosphere of 5% CO2 at 37° C. […] At the end of incubation, 20 μl of 90% alamarBlue reagent was added to each well for another 6-hour incubation before detection of cell viability by fluorescent intensity. Fluorescent intensity was measured using a Spectrafluor Plus plate reader with excitation at 530 nm and demission at 590 nm.
IC50, TGI, and LC50 values were then determined. […] TGI (Total Growth Inhibition) is the test compound concentration where the number or mass of treated cells at the end of the experiment was equal to that at time0. […] The measured results were calculated by the following formula: PG(%)=100×(Mean Ftest−Mean Ftime0)/(Mean Fctrl−Mean Ftime0)
If (Mean Ftest−Mean Ftime0)<0, then PG(%)−100×(Mean Ftest−Mean Ftime0)/(Mean Ftime0−Mean Fblank)
Where: • PG=percent growth • Mean Ftime0=The average of 2 measured fluorescent intensities of reduced alamarBlue at the time just before exposure of cells to the test substance. • Mean Ftest=The average of 2 measured fluorescent intensities of alamarBlue after 72-hour exposure of cells to the test substance. • Mean Fctrl, =The average of 2 measured fluorescent intensities of alamarBlue after 72-hour incubation without the test substance. • Mean Fblank=The average of 2 measured fluorescent intensities of alamarBlue in medium without cells after 72-hour incubation.
A decrease of 50% or more (≧50%) in fluorescent intensity relative to the vehicle-treated control indicated significant cell growth inhibition, cytostatic or cytotoxic activity, and a semi-quantitative IC50, TGI, and LC50 were then determined by nonlinear regression using GraphPad Prism (GraphPad Software, USA).

Turning to `CC1(C)S[C@@H]2[C@H](NC(=O)[C@H](N)c3ccccc3)C(=O)N2[C@H]1C(=O)O` [Ampicillin], the “Reference Compound Data, Concurrent” value in test [1] was 0.1 µg/mL.

As for `CO[C@@]12[C@H](COC(N)=O)C3=C(C(=O)C(C)=C(N)C3=O)N1C[C@@H]1N[C@@H]12` [Mitomycin], the “Percent Grown” value in test [2] (concentration 0.001 μM) is listed as 101%; in test [2] (concentration 0.01 μM), 82%; in test [2] (concentration 0.1 μM), 7%; in test [2] (concentration 1 μM), 35%; in test [2] (concentration 10 μM), 97%. Further, the IC50 in test [2] (Homo sapiens, A-431, Tumor, Skin (A431), semi-quantitative, nonlinear regression, read-out: IC50 (50% Inhibition Concentration)) is 35 nM. In addition, the “TGI (Total Growth Inhibition)” value in test [2] (Tumor, Skin (A431), semi-quantitative, nonlinear regression) worked out at 190 nM.
